Test results published in patent publication US8426174B2, “Method for the production of 2-butanol” (Butamax(TM) Advanced Biofuels LLC, priority 2007, dated 2013).

Experiments:
[1] = test system: Lactobacillus plantarum PN0512; assay: Growth of L. plantarum PN0512 in the presence of butanols at different temperatures; assay type: cell-based; design: key to Growth at 37° C. / Growth at 30° C. / Growth at 25° C.: +: growth observed as an increase in OD600.; −: no growth observed, i.e. no change in OD600
Description: Tolerance levels of bacterial strain Lactobacillus plantarum PN0512 (ATCC # PTA-7727) were determined at 25° C., 30° C. and 37° C. as follows. The strain was cultured in S30L medium (i.e., 10 mM ammonium sulfate, 5 mM potassium phosphate buffer, pH 7.0, 50 mM MOPS, pH 7.0, 2 mM MgCl2, 0.7 mM CaCl2, 50 μM MnCl2, 1 μM FeCl3, 1 μM ZnCl2, 1.72 μM CuCl2, 2.53 μM CoCl2, 2.42 μM Na2MoO4, 2 μM thiamine hydrochloride, 10 mM glucose, and 0.2% yeast extract). An overnight culture in the absence of any test compound was started in 15 mL of the S30L medium in a 150 mL flask, with incubation at 37° C. in a shaking water bath. The next morning, the overnight culture was diluted into three 500 mL flasks containing 150 mL of fresh medium to an initial OD600 of about 0.08. Each flask was incubated in a shaking water bath, one each at 25° C., 30° C. and 37° C. Each large culture was allowed to acclimate at the test temperature for at least 0.5 h. […] Growth was followed by measuring OD600 for six hours after addition of the compounds.

[2] = test system: Klebsiella pneumoniae glycerol dehydratase; assay: Glycerol dehydratase butanediol dehydratase activity, crude cell free extract; assay type: biochemical; details: 10 mM meso-2,3-butanediol, 12 μM coenzyme B12, pH 8.2, 37° C.
Source text: Glycerol dehydratase (E.C. 4.2.1.30) and diol dehydratase (E.C. 4.2.1.28), while structurally related, are often distinguished in the art based on various differences that include substrate specificity. […] The recombinant E. coli strain KLP23/pSYCO12, comprising Klebsiella pneumoniae genes encoding the multiple subunits of glycerol dehydratase (alpha: SEQ ID NO:145 (coding region) and 146 (protein); beta: SEQ ID NO: 147 (coding region) and 148 (protein); and gamma: SEQ ID NO: 149 (coding region) and 150 (protein)) and Klebsiella pneumoniae genes encoding the multiple subunits of glycerol dehydratase reactivase (large subunit, SEQ ID NO: 151 (coding region) and 152 (protein); and small subunit, SEQ ID NO: 153 (coding region) and 154 (protein)), is described in Emptage et al. U.S. Pat. No. 6,514,733 and in WO 2003089621, which are herein incorporated by reference. A crude, cell free extract of KLP23/pSYCO12 was prepared by methods known to one skilled in the art. […] The formation of 2-butanone was monitored by HPLC (Shodex SH-1011 column and SH-G guard column with refractive index detection; 0.01 M H2SO4 as the mobile phase at a flow rate of 0.5 mL/min and a column temperature of 50° C.; 2-butanone retention time=40.2 min). The rate of 2-butanone formation by the glycerol dehydratase preparation was determined to be 0.4 nmol/min/mg of crude protein.

SMILES: CCC(C)O (stereo not drawn) [2-butanol]
- Growth at 37° C. ([1]; 1.8 % w/v 2-butanol): +
- Growth at 37° C. ([1]; 2.1 % w/v 2-butanol): +
- Growth at 25° C. ([1]; 2.9 % w/v 2-butanol): +
- Growth at 30° C. ([1]; 2.9 % w/v 2-butanol): +
- Growth at 37° C. ([1]; 2.9 % w/v 2-butanol): +
- Growth at 37° C. ([1]; 3.1 % w/v 2-butanol): +
- Growth at 37° C. ([1]; 3.6 % w/v 2-butanol): +
- Growth at 25° C. ([1]; 3.8 % w/v 2-butanol): +
- Growth at 30° C. ([1]; 3.8 % w/v 2-butanol): +
- Growth at 37° C. ([1]; 3.8 % w/v 2-butanol): +
- Growth at 30° C. ([1]; 4.0 % w/v 2-butanol): +
- Growth at 25° C. ([1]; 4.3 % w/v 2-butanol): +
- Growth at 30° C. ([1]; 4.3 % w/v 2-butanol): +
- Growth at 37° C. ([1]; 4.3 % w/v 2-butanol): +
- Growth at 25° C. ([1]; 4.7 % w/v 2-butanol): +
- Growth at 30° C. ([1]; 4.7 % w/v 2-butanol): +
- Growth at 37° C. ([1]; 4.7 % w/v 2-butanol): −
- Growth at 25° C. ([1]; 4.9 % w/v 2-butanol): +
- Growth at 30° C. ([1]; 4.9 % w/v 2-butanol): −
- Growth at 25° C. ([1]; 5.2 % w/v 2-butanol): +
- Growth at 37° C. ([1]; 5.2 % w/v 2-butanol): −
- Growth at 25° C. ([1]; 5.6 % w/v 2-butanol): −
- Growth at 37° C. ([1]; 5.6 % w/v 2-butanol): −
- Growth at 37° C. ([1]; 6.0 % w/v 2-butanol): −
- Growth at 37° C. ([1]; 6.4 % w/v 2-butanol): −
- Growth at 37° C. ([1]; 7.3 % w/v 2-butanol): −
- concentration in which growth was observed ([1]; 25° C.): 5.2%
- concentration in which growth was not observed ([1]; 30° C.): 4.9%
- concentration in which growth was observed ([1]; 30° C.): 4.7%
- concentration in which growth was not observed ([1]; 37° C.): 4.5%
- concentration in which growth was observed ([1]; 37° C.): 4.3%
- Growth at 30° C. ([1]; […] w/v 2-butanol): +

SMILES: CC(O)C(C)O (stereo not drawn) [meso-2,3-butanediol]
- rate of 2-butanone formation [2]: 0.4 nmol/min/mg of crude protein
